System: P. falciparum K1 (strain resistant to chloroquine and pyrimethamine), erythrocytic stages
Experiment: Plasmodium falciparum in vitro assay, [3H] hypoxanthine incorporation
Format: cell-based
Details: Plasmodium falciparum, K1, P. falciparum strain K1; [3H] hypoxanthine incorporation; read-out: IC50 (nM) on K1
How it was run: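 K1 strain parasites grown in human red cells, 2.5% haematocrit, 0.3% parasitaemia, 37 °C, 4% CO2/3% O2; compounds in seven serial doubling dilutions.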

Row | Compound | IC50 [nM]
1 | COc1ccc(C=CC(=O)N(Cc2ccc(-c3ccncc3)cc2)[C@@H](Cc2ccccc2)C(=O)N2CCC(N(C)C)CC2)cn1 [Example 29, (S)-N-[1-Benzyl-2-(4-dimethylamino-piperidin-1-yl)-2-oxo-ethyl]-3-(6-methoxy-pyridin-3-yl)-N-(4-pyridin-4-yl-benzyl)-acrylamide] | 34
2 | CC(C)Oc1ccc(CN(C)CCN(C)C(=O)[C@H](Cc2ccccc2)N(Cc2ccc(N3CCOCC3)cc2)C(=O)C=Cc2ccc(C(F)(F)F)cc2)cc1 [Example 262, (S)-N-[1-({2-[(4-Isopropoxy-benzyl)-methyl-amino]-ethyl}-methyl-carbamoyl)-2-phenyl-ethyl]-N-(4-morpholin-4-yl-benzyl)-3-(4-trifluoromethyl-phenyl)-acrylamide] | 17
3 | COCCN(C)C(=O)[C@H](Cc1ccccc1)N(Cc1ccc(-c2cccnc2)cc1)C(=O)C=Cc1cnc(C)n1C [Example 131, (S)-3-(2,3-Dimethyl-3H-imidazol-4-yl)-N-{1-[(2-methoxy-ethyl)-methyl-carbamoyl]-2-phenyl-ethyl}-N-(4-pyridin-3-yl-benzyl)-acrylamide] | 282
4 | COCCN(C)C(=O)[C@H](Cc1ccccc1)N(Cc1ccc(-c2ccccn2)cc1)C(=O)C=Cc1ccn(C)n1 [Example 73, (S)-N-{1-[(2-Methoxy-ethyl)-methyl-carbamoyl]-2-phenyl-ethyl}-3-(1-methyl-1H-pyrazol-3-yl)-N-(4-pyridin-2-yl-benzyl)-acrylamide] | 156
5 | CN(CCN(C)C(=O)[C@H](Cc1ccccc1)N(Cc1ccc(N2CCOCC2)cc1)C(=O)C=Cc1ccc(C(F)(F)F)cc1)Cc1ccc(N(C)CCO)cc1 [Example 255, (S)-N-(1-{[2-({4-[(2-Hydroxy-ethyl)-methyl-amino]-benzyl}-methyl-amino)-ethyl]-methyl-carbamoyl}-2-phenyl-ethyl)-N-(4-morpholin-4-yl-benzyl)-3-(4-trifluoromethyl-phenyl)-acrylamide] | 59
6 | CN(C)C1CCN(C(=O)[C@H](Cc2ccccc2)N(Cc2ccc(-c3ccncc3)cc2)C(=O)C=Cc2ccn(C)n2)CC1 [Example 19, (S)-N-[1-Benzyl-2-(4-dimethylamino-piperidin-1-yl)-2-oxo-ethyl]-3-(1-methyl-1H-pyrazol-3-yl)-N-(4-pyridin-4-yl-benzyl)-acrylamide] | 250
7 | COCCN(C)C(=O)[C@H](Cc1ccccc1)N(Cc1ccc(N2CCN(C(C)=O)CC2)cc1)C(=O)C=Cc1sc(C)nc1C [Example 107, (S)-N-[4-(4-Acetyl-piperazin-1-yl)-benzyl]-3-(2,4-dimethyl-thiazol-5-yl)-N-{1-[(2-methoxy-ethyl)-methyl-carbamoyl]-2-phenyl-ethyl}-acrylamide] | 70

Source: patent US20110224210A1, “NOVEL BIS-AMIDES AS ANTI-MALARIAL AGENTS” (priority 2008, published 2011)
